Source: patent publication US20140005164A1, “WNT PATHWAY ANTAGONISTS” (Siena Biotech S.p.A., priority 2011, published 2014)

system: Wnt/β-catenin pathway; test: Wnt reporter assay (TCF-Luciferase, Firefly) in DBTRG-05MG cells; format: cell-based; conditions: Homo sapiens, 24 h, read-out: IC50 value in the reporter assay
Experimental: Three copies of a 4×TCF responsive elements were cloned into the pcDNA3.1/Zeo(+) vector (Invitrogen) after deletion of the constitutive CMV promoter and the insertion of the Firefly Luciferase from Promega (phFL-TK) to measure the activity of the Wnt/β-catenin pathway. The resulting plasmid was sequenced for quality control.
Cells were grown in 20 μg/ml Zeocin and 20 μg/ml Zeocin plus 30 μg/ml Hygromicin respectively. The cells were plated at a density of 6500 cells/well in poly-D-lysine pre-treated 96 well-plates.
36 hours after plating cells were incubated with 8-points dilutions compound (0.6% DMSO (v/v)). Each compound was tested in triplicate in single plate. Luciferase detection was done with Dual-Luciferase Reporter Assay System (Promega). 24 hours after compound addition, media was removed and 30 μl of 1× lysis buffer was added to each well for 30 minutes. To each well 45 μl of Dual-Glo Luciferase reagent (Promega) were added and after 1 second delay Luciferase was detected for 1 second using Mithras LB940 instrument. After Firefly luciferase quantification 45 μl of Dual Stop & Glo reagent (Promega) were added to each well and […] Renilla was detected using the same parameters described before.
Data were expressed as % of control for Firefly and Renilla luciferase independently; values were calculated using XLFit version 4.2, with a four parameters sigmoid function (XLFit model 205).

| Structure (SMILES) | IC50 |
| --- | --- |
| CN(C)CCN(C)c1ccc2c(n1)n(C[C@H]1CC[C@H](C(=O)Nc3ccncc3)CC1)c(=O)n2C [Example 5, Trans-4-{5-[(2-Dimethylamino-ethyl)-methyl-amino]-1-methyl-2-oxo-1,2-dihydro-imidazo[4,5-b]pyridin-3-ylmethyl}-cyclohexanecarboxylic acid pyridin-4-ylamide] | 35 to 23000 nM |
| COCCN(C)c1ncc2c(n1)n(C[C@H]1CC[C@H](C(=O)Nc3ccncc3)CC1)c(=O)n2C [Example 8, Trans-4-{2-[(2-Methoxy-ethyl)-methyl-amino]-7-methyl-8-oxo-7,8-dihydro-purin-9-ylmethyl}-cyclohexanecarboxylic acid pyridine-4-ylamide] | 35 to 23000 nM |
| COc1cccc(COc2ccc3c(n2)n(C[C@H]2CC[C@H](C(=O)Nc4ccncc4)CC2)c(=O)n3C)c1 [Example 10, Trans-4-[5-(3-Methoxy-benzyloxy)-1-methyl-2-oxo-1,2-dihydro-imidazo[4,5-b]pyridin-3-ylmethyl]-cyclohexane carboxylic acid pyridin-4-ylamide] | 35 to 23000 nM |

same assay, conditions: Homo sapiens, TCF-Luciferase (Firefly) read out, 24 hours after compound addition, range given with mixed units nM and μM, read-out: IC50 value in the reporter assay

| Structure (SMILES) | IC50 |
| --- | --- |
| COc1ccc2c(c1)n(C[C@H]1CC[C@H](C(=O)N3CCN(c4ncccn4)CC3)CC1)c(=O)n2C [Example 2, 5-Methoxy-1-methyl-3-[trans-4-(4-pyrimidin-2-yl-piperazine-1-carbonyl)-cyclohexylmethyl]-1,3-dihydro-benzoimidazol-2-one] | 35 to 23000 nM |
| CC(=O)N1CCN(C(=O)[C@H]2CC[C@H](Cn3c(=O)n(C)c4ccc(Br)nc43)CC2)CC1 [Example 3, 3-[trans 4-(4-Acetyl-piperazine-1-carbonyl)cyclohexylmethyl]-5-bromo-1-methyl-1,3-dihydro-imidazo[4,5-b]pyridin-2-one] | 35 to 23000 nM |
| COC/C=C/c1ccc2c(n1)n(C[C@H]1CC[C@H](C(=O)N3CCN(C(C)=O)CC3)CC1)c(=O)n2C [Example 4, 3-[Trans-4-(4-Acetyl-piperazine-1-carbonyl)-cyclohexylmethyl]-5-((E)-3-methoxy-propenyl)-1-methyl-1,3-dihydro-imidazo[4,5-b]pyridin-2-one] | 35 to 23000 nM |
| COc1ccc(COc2ccc3c(c2)n(C[C@H]2CC[C@H](C(=O)Nc4ccncc4)CC2)c(=O)n3C)cc1 [Example 6, Trans-4-[6-(4-Methoxy-benzyloxy)-3-methyl-2-oxo-2,3-dihydro-benzoimidazol-1-ylmethyl]-cyclohexanecarboxylic acid pyridin-4-ylamide] | 35 to 23000 nM |
| CCC(=O)CN1CCN(C(=O)[C@H]2CC[C@H](Cn3c(=O)n(C)c4ccc(OC)cc43)CC2)CC1=O [Example 7, 5-Methoxy-1-methyl-3-{trans-4-[3-oxo-4-(2-oxo-butyl)-piperazine-1-carbonyl]-cyclohexylmethyl}-1,3-dihydro-benzoimidazol-2-one] | 35 to 23000 nM |
| Cn1c(=O)n(C[C@H]2CC[C@H](C(=O)Nc3ccnnc3)CC2)c2[nH]c(=O)ccc21 [Example 9, Trans-4-(1-Methyl-2,5-dioxo-1,2,4,5-tetrahydro-imidazo[4,5-b]pyridin-3-ylmethyl)-cyclohexanecarboxylic acid pyridazin-4-ylamide] | 35 to 23000 nM |
| COc1ccc2c(c1)n(C[C@H]1CC[C@H](c3nnc(-c4cn(C)nc4C(F)(F)F)o3)CC1)c(=O)n2C [Example 11, 5-Methoxy-1-methyl-3-{trans 4-[5-(1-methyl-3-trifluoromethyl-1H-pyrazol-4-yl)-[1,3,4]oxadiazol-2-yl]-cyclohexylmethyl}-1,3-dihydro-benzoimidazol-2-one] | 35 to 23000 nM |
| COc1ccc2c(c1)n(C[C@H]1CC[C@H](c3cc(-c4ccncc4)n[nH]3)CC1)c(=O)n2C [Example 13, 5-Methoxy-1-methyl-3-[trans-4-(5-pyridin-4-yl-2H-pyrazol-3-yl)-cyclohexylmethyl]-1,3-dihydro-benzoimidazol-2-one] | 35 to 23000 nM |
| COCCNc1ccc2c(c1)n(C[C@H]1CC[C@H](C(=O)N3CCN(C(C)=O)CC3)CC1)c(=O)n2C [Example 15, 3-[trans-4-(4-Acetyl-piperazine-1-carbonyl)-cyclohexylmethyl]-5-(2-methoxy-ethylamino)-1-methyl-1,3-dihydro-benzoimidazol-2-one] | 35 to 23000 nM |
| CC(=O)N1CCN(C(=O)[C@H]2CC[C@H](Cn3c(=O)n(C)c4ccc(O)cc43)CC2)CC1 [Example 16, 3-[trans-4-(4-Acetyl-piperazine-1-carbonyl)-cyclohexylmethyl]-5-hydroxy-1-methyl-1,3-dihydro-benzoimidazol-2-one] | 35 to 23000 nM |
| CCOc1ccc2c(c1)n(C[C@H]1CC[C@H](C(=O)Nc3ccncc3)CC1)c(=O)n2C [Example 17] | 35 to 23000 nM |
| COc1ccc(-c2nc([C@H]3CC[C@H](Cn4c(=O)n(C)c5ccc(OC)cc54)CC3)no2)cc1 [Example 18, 5-Methoxy-3-{trans-4-[5-(4-methoxy-phenyl)[1,2,4]oxadiazol-3-yl]-cyclohexylmethyl}-1-methyl-1,3-dihydro-benzoimidazol-2-one] | 35 to 23000 nM |
| COc1ccc2c(c1)n(C[C@H]1CC[C@H](c3c[nH]c(NC(C)=O)n3)CC1)c(=O)n2C [Example 19, N-{4-[trans-4-(6-Methoxy-3-methyl-2-oxo-2,3-dihydro-benzoimidazol-1-ylmethyl)-cyclohexyl]-1H-imidazol-2-yl}-acetamide] | 35 to 23000 nM |
| COc1ccc2c(c1)n(C[C@H]1CC[C@H](C(=O)N3CCN(c4cncnc4)CC3)CC1)c(=O)n2C [Example 20, 5-Methoxy-1-methyl-3-[trans-4-(4-pyrimidin-5-yl-piperazine-1-carbonyl)-cyclohexylmethyl]-1,3-dihydro-benzoimidazol-2-one] | 35 to 23000 nM |
| Cn1c(=O)n(C[C@H]2CC[C@H](C(=O)N3CCN(c4ncccn4)CC3)CC2)c2c(Cl)cccc21 [Example 21] | 35 to 23000 nM |
| Cn1c(=O)n(C[C@H]2CC[C@H](C(=O)N3CCN(c4nccs4)CC3)CC2)c2c(Cl)cccc21 [Example 23] | 35 to 23000 nM |
| Cn1c(=O)n(C[C@H]2CC[C@H](C(=O)N3CCN(c4nccs4)CC3)CC2)c2cc(C(F)(F)F)ccc21 [Example 24] | 35 to 23000 nM |
| Cn1c(=O)n(C[C@H]2CC[C@H](C(=O)N3CCN(c4ncccn4)CC3)CC2)c2cc(C(F)(F)F)ccc21 [Example 25] | 35 to 23000 nM |
| COc1ccc2c(n1)n(C[C@H]1CC[C@H](C(=O)N3CCN(c4ncccn4)CC3)CC1)c(=O)n2C [Example 26] | 35 to 23000 nM |
| COc1ccc2c(c1)n(C[C@H]1CC[C@H](C(=O)N3CCN(c4nccs4)CC3)CC1)c(=O)n2C [Example 27] | 35 to 23000 nM |
| Cn1c(=O)n(C[C@H]2CC[C@H](C(=O)Nc3ccncc3)CC2)c2c(Cl)cccc21 [Example 28] | 35 to 23000 nM |

| Structure (SMILES) | IC50 |
| --- | --- |
| COc1ccc2c(c1)n(C[C@H]1CC[C@H](C(=O)Nc3ccncc3C)CC1)c(=O)n2C [Example 30] | 35 to 23000 nM |
| COc1ccc2c(c1)n(C[C@H]1CC[C@H](C(=O)Nc3ccc(OC)nc3)CC1)c(=O)n2C [Example 31] | 35 to 23000 nM |
| COc1ccc2c(c1)n(C[C@H]1CC[C@H](C(=O)Nc3ccnc(Cl)c3)CC1)c(=O)n2C [Example 32] | 35 to 23000 nM |
| COc1ccc2c(c1)n(C[C@H]1CC[C@H](C(=O)Nc3ccnc(C)c3)CC1)c(=O)n2C [Example 33] | 35 to 23000 nM |
| COc1ccc2c(c1)n(C[C@H]1CC[C@H](C(=O)Nc3cccc(C)n3)CC1)c(=O)n2C [Example 34] | 35 to 23000 nM |
| COc1ccc2c(c1)n(C[C@H]1CC[C@H](C(=O)N3CCC(F)(F)CC3)CC1)c(=O)n2C [Example 35] | 35 to 23000 nM |
| COCCOc1cc(NC(=O)[C@H]2CC[C@H](Cn3c(=O)n(C)c4ccc(OC)cc43)CC2)ccn1 [Example 36] | 35 to 23000 nM |
| COc1ccc2c(c1)n(C[C@H]1CC[C@H](C(=O)Nc3cccnc3)CC1)c(=O)n2C [Example 37] | 35 to 23000 nM |
| COc1ccc2c(c1)n(C[C@H]1CC[C@H](C(=O)Nc3ccncc3F)CC1)c(=O)n2C [Example 38] | 35 to 23000 nM |
| Cc1cc(NC(=O)[C@H]2CC[C@H](Cn3c(=O)n(C)c4ccc(Cl)cc43)CC2)ccn1 [Example 39] | 35 to 23000 nM |
| COCCOc1cc(NC(=O)[C@H]2CC[C@H](Cn3c(=O)n(C)c4ccc(Cl)cc43)CC2)ccn1 [Example 40] | 35 to 23000 nM |
| Cn1c(=O)n(C[C@H]2CC[C@H](C(=O)Nc3ccnc(N4CCOCC4)c3)CC2)c2cc(Cl)ccc21 [Example 41] | 35 to 23000 nM |
| COCCOc1cc(NC(=O)[C@H]2CC[C@H](Cn3c(=O)n(C)c4c(Cl)cccc43)CC2)ccn1 [Example 42] | 35 to 23000 nM |
| Cn1c(=O)n(C[C@H]2CC[C@H](C(=O)Nc3ccnc(N4CCOCC4)c3)CC2)c2cccc(Cl)c21 [Example 43] | 35 to 23000 nM |
| COc1ccc2c(c1)n(C[C@H]1CC[C@H](C(=O)N3CCC(F)(F)C3)CC1)c(=O)n2C [Example 44] | 35 to 23000 nM |
| COCCN(C)c1ncccc1NC(=O)[C@H]1CC[C@H](Cn2c(=O)n(C)c3ccc(OC)cc32)CC1 [Example 45] | 35 to 23000 nM |
| COc1cc2c(cc1Cl)n(C[C@H]1CC[C@H](C(=O)N3CCN(c4ncccn4)CC3)CC1)c(=O)n2C [Example 46] | 35 to 23000 nM |
| Cn1c(=O)n(C[C@H]2CC[C@H](C(=O)N3CCN(c4ncccn4)CC3)CC2)c2cc(Cl)ccc21 [Example 47] | 35 to 23000 nM |
| Cc1cc(NC(=O)[C@H]2CC[C@H](Cn3c(=O)n(C)c4cc(Cl)ccc43)CC2)ccn1 [Example 48] | 35 to 23000 nM |
| Cc1cc(NC(=O)[C@H]2CC[C@H](Cn3c(=O)n(C)c4c(Cl)cccc43)CC2)ccn1 [Example 49] | 35 to 23000 nM |
